From patent EP0112633A2, “Novel 5-thiaprostaglandin, process for production thereof, and pharmaceutical use thereof” (TEIJIN LIMITED, priority 1982, dated 1984)
In brackets after ≈: the same amount, converted by molar mass. Where two headings read alike, the source gives them in different places.

Legend:
L1210 leukemia cells = experiment: Inhibition of proliferation of L1210 leukemia cells (trypan blue count of surviving cells after 4 days); assay type: cell-based; details: RPMI medium with 10% FCS, 37°C, ratio of proliferation against 0.1% ethanol control
Protocol: Measurement of the action of inhibiting proliferation of […] leukemia cell:-
L1210 leukemia cells were added to an RPMI medium containing 10% FCS (fetal calf serum), and the concentration of the cells was adjusted to 1 × 10^5 cells/ml. […] Prior to use, the final concentration of the ethanol solution was adjusted to less than 0.1%, and it was added to the culture medium. The culture medium was then maintained at 37°C in a stationary condition for 4 days. After the cultivation, the number of surviving cells was measured by dyeing with trypan flue. As a control, 0.1% ethanol was used. A dose-reaction curve was plotted from the ratios of proliferation against the control, and IC50 was determined.

blood pressure = experiment: Hypotensive activity by intravenous injection under anesthesia; assay type: in vivo, Male wister rats; details: anesthetized rats, i.v.; dosage which caused a 20% lowering of the mean blood pressure
Protocol: Measurement of the hypotensive activity:-
The actions of the 5-thiaprostaglandin of the invention on the blood pressure was examined by intravenous injection under anesthesia.
Male wister rats weighing about 250 g were used. Urethane (500 mg/kg) and a-chloralose (100 mg/kg) were intraperitoneally administered to the rats. The rats were anesthetized and fixed in place.
Each of the test compounds was dissolved in a small amount of ethanol and diluted with physiological saline to adjust the final ethanol concentration to not more than 5%. The solution was intravenously injected into the rats through a catheter inserted into the femoral vein.
The blood pressure of the rats was measured by a pressure transducer through a catheter inserted into the carotid artery of the rats.
The action of the test compound on the blood pressure was expressed as the dosage (ED20, u/kg) of the test compound which caused a 20% lowering of the mean blood pressure before administration of the compound.

platelet aggregation = experiment: In vitro inhibition of ADP-induced platelet aggregation in platelet-rich plasma (aggregometer); assay type: cell-based, Japanese domestic white male rabbits
Protocol: in vitro inhibitory activity of platelet aggregation:-
The in vitro platelet aggregation imhibiting activity of the compounds of the invention were examined by using rabbits. Blood was withdrawn from the ear vein of Japanese domestic white male rabbits weighing 2.5 to 3.5 kg. A mixture of a 3.8% trisodium citrate solution and the blood in a ratio of 1:9 was centrifuged at a speed of 1000 rpm for 10 minutes. The upper layer was separated as platelet- rich plasma (PRP). The lower layer was further centrifuged at a speed of 28000 rpm for 10 minutes. The upper layer was separated as platelet-poor plasma (PPP). The number of platelets was adjusted to 6 x 10^5/µℓ to 7 x 10^5/µℓ by diluting the PRP with PPP. 25 microliters of the test compounds prepared as shown below was added in an amount of 25 to 250 microliters of PRP after the adjustment, and the mixture was pre-incubated at 37°C for 2 minutes, and then 10 µM (final) of ADP was added. By using an aggregometer, changes in transmission were recorded.
The drug was dissolved in ethanol to a concentration of 10 mg/mt, and successively diluted with phosphate buffer (pH 7.4) prior to use.
The rate of inhibition of platelet aggregation was determined from the following equation. [formula] • T: the transmittance of the system containing the phosphate buffer, • T : the transmittance of the system to which the test drug was added.
The minumum concentration of the drug which inhibited more than 50% of platelet aggregation was shown as an IC50 value.

ethanol ulcer = experiment: Ethanol ulcer test (inhibitory activity on ethanol ulcer); assay type: in vivo, SD-strain rats; details: rats; for Ulcer index (mm): 75% ethanol 30 min later, stomach examined 1 h later; for ED50: p.o., ethanol ulcer
Protocol: Measurement of inhibitry activity on ethanol ulcer:- An ethanol ulcer test was carried out by the following processure. SD-strain rats (body weight 200 to 220 g; 7 weeks old) were fasted for 24 hours, and a solution of each of the test compounds in physiological saline buffered with phosphate buffer at pH 7.5 was orally administered. Thirty minutes after the administration, 75% ethanol was orally administered in a dose of […]. One hour later, the abdomen was incised to isolate the stomach. […] The total of these lengths was defined as the ulcer index. A control group was given physiological saline buffered with phosphate buffer (pH 7.5) and 75% ethanol.

In the case of 5-thiaprostaglandin E1 methyl ester, the IC50 (L1210 leukemia cells) is reported as 0.6 µg/mL.

For “17(S),20-dimethyl-5-thiaprostaglandin E1 methyl ester”, the ED20 (blood pressure) was 2.7 µg/kg, the IC50 (platelet aggregation; rabbit PRP, 10 µM (final) ADP, minimum concentration which inhibited more than 50% of platelet aggregation) was 0.33 µg/mL and the “Ulcer inhibiting rate (%)” value (ethanol ulcer; p.o. 0.3 µg/kg) was 46.8%. The “Ulcer index (mm)” value (ethanol ulcer; p.o. 0.3 µg/kg) was 18.4 ±4.3 mm, the “Ulcer inhibiting rate (%)” value (ethanol ulcer; p.o. 1 µg/kg) was 97.7% and the “Ulcer index (mm)” value (ethanol ulcer; p.o. 1 µg/kg) was 0.8 ±0.6 mm. The “Ulcer inhibiting rate (%)” value (ethanol ulcer; p.o. 3 µg/kg) was 100%, the “Ulcer index (mm)” value (ethanol ulcer; p.o. 3 µg/kg) was 0 mm and the ED50 (ethanol ulcer) was 0.35 µg/kg.

Work on `CCCCCC(O)C=CC1C=CC(=O)C1=CCSCCCC(=O)OC` (centres unmarked) [12-epimer of (7E)-Δ^7-5-thiaprostaglandin A1 methyl ester] yielded an IC50 (L1210 leukemia cells) of 0.3 µg/mL.

For `CCCC[C@@H](C)C[C@H](O)/C=C/[C@H]1[C@H](O)CC(=O)[C@@H]1CCSCCCC(=O)OC` [17(R),20-dimethyl-5-thiaprostaglandin E1 methyl ester], the IC50 (platelet aggregation; Oryctolagus cuniculus, rabbit PRP, 10 µM (final) ADP, minimum concentration which inhibited more than 50% of platelet aggregation, read-out: IC50) was 0.36 µg/mL (≈ 0.868 µM).

`CCCCC[C@H](O)/C=C/[C@H]1C=CC(=O)/C1=C/CSCCCC(=O)OC` [(7E)-Δ^7-5-thiaprostaglandin A1 methyl ester] showed an IC50 (L1210 leukemia cells; Mus musculus, 96 h, read-out: IC50) of 0.2 µg/mL.

With `CCCCC[C@H](O)/C=C/[C@H]1[C@H](O)CC(=O)[C@@H]1CCCCCCC(=O)O` [Prostaglandin E1, reference compound] the IC50 (platelet aggregation; Oryctolagus cuniculus, Platelet, in vitro, ADP 10 µM (printed "ADPlOpM"), read-out: inhibiting platelet aggregation activity (IC50)) was 0.03 µg/mL (≈ 0.0846 µM), the inhibition at 0.003 mg/kg (ethanol ulcer; Rattus norvegicus, po, p.o. 3 µg/kg, read-out: Ulcer inhibiting rate (%)) was 50% and the inhibition at 0.01 mg/kg (ethanol ulcer; Rattus norvegicus, po, p.o. 10 µg/kg, read-out: Ulcer inhibiting rate (%)) was 96.2%. The ED50 (ethanol ulcer; Rattus norvegicus, po, read-out: ED50) was 3 µg/kg, the “Ulcer index (mm)” value (ethanol ulcer; p.o. 3 µg/kg) was 17.1 ±5.5 mm and the “Ulcer index (mm)” value (ethanol ulcer; p.o. 10 µg/kg) was 1.3 ±0.8 mm.

Work on “(7E)-Δ^7-5-thiaprostaglandin E1 methyl ester and its 15-epimer [A mixture of (7E)-Δ^7-5-thiaprostaglandin E1 methyl ester of its 15-epimer]” yielded an IC50 (L1210 leukemia cells) of 0.4 µg/mL.
